The test system of assay [1] is tetrodotoxin-sensitive voltage-gated sodium channels including NaV1.2, NaV1.3 and NaV1.7 (SHSY-5Y cell line). The experiment in a line: TTX-S assay in SHSY-5Y cell line (VIPR procedure, veratridine as opener). It counts as cell-based. The following applies: read-out: TTX-S IC50, SHSY-5Y cells, veratridine 50 μM, average of replicates.
The target of a further assay is T1, Human Nav1.8 (Homo sapiens, UniProt Q9Y5Y9).
T1 construct: expressed in transfected cells
In words: VIPR assay for Nav1.8 (FRET membrane potential, deltamethrin as opener). It counts as cell-based. The following applies: for IC50: HEK293 cells expressing human Nav1.8, average of replicates; for Selectivity Ratio: TTX-S IC50 / NaV1.8 IC50.

Where [2] appears, read: automated dissolution procedure.

Where two headings read alike, the source gives them in different places.

T1 sequence (Q9Y5Y9 whole entry): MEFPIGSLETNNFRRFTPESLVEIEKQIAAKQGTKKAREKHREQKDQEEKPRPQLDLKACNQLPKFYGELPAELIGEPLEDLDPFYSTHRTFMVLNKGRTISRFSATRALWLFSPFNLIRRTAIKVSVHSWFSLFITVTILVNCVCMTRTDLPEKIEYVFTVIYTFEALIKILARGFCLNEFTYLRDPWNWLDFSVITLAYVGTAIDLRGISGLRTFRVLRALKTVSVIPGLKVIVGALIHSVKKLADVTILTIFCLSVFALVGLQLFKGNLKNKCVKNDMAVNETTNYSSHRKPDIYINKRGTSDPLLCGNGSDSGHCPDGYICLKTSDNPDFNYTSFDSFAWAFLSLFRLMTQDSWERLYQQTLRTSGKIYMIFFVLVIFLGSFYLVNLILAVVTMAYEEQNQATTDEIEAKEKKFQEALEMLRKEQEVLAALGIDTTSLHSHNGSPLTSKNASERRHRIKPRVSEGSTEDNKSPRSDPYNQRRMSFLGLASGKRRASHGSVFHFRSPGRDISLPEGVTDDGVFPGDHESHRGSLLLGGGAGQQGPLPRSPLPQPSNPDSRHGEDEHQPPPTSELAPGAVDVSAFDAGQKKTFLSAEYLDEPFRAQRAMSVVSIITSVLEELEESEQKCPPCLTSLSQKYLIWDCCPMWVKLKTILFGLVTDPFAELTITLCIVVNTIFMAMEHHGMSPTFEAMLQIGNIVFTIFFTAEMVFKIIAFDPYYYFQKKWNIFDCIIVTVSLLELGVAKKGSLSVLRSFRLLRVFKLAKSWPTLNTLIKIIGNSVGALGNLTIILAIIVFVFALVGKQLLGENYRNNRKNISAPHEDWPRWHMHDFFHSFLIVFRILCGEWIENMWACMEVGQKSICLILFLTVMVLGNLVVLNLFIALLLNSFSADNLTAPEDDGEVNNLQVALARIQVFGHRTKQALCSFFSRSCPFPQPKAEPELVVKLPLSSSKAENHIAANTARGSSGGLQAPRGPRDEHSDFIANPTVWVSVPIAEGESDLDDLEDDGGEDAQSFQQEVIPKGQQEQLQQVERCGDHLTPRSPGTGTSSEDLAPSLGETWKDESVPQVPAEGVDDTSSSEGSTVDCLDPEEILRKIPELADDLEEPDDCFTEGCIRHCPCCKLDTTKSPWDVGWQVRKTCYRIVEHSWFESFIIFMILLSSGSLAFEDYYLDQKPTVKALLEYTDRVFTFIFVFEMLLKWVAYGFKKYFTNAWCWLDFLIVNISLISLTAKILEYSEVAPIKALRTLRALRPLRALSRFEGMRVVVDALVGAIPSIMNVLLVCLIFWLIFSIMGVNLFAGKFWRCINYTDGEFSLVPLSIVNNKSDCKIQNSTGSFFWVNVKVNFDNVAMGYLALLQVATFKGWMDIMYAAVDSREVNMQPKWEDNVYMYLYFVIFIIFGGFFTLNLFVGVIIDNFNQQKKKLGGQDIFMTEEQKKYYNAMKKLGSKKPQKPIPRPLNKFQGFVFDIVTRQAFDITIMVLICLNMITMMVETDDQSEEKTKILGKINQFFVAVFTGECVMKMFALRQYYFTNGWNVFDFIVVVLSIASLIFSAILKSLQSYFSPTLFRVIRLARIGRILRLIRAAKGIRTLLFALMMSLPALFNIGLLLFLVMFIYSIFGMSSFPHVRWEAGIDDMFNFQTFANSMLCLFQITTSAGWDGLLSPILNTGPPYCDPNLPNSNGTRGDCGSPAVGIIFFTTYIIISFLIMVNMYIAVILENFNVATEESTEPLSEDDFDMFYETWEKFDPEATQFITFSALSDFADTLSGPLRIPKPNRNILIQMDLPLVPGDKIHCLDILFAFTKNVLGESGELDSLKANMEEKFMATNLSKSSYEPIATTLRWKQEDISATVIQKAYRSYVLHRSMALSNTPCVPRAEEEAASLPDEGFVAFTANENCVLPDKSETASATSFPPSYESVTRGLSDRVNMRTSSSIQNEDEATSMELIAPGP

Consider `CC(C)c1oncc1C(=O)Nc1cnc(-c2ccccc2Cl)c(N)n1` [Example 51, N-[6-amino-5-(2-chlorophenyl)pyrazin-2-yl]-5-isopropylisoxazole-4-carboxamide], for which, in assay [1] (setting [2]), the IC50 was > 21.1 µM. Moreover, at Human Nav1.8 (setting [2]), inhibition was half-maximal at 0.964 µM (IC50) and the “Selectivity Ratio” value is >21.89.

Turning to `CCCc1oncc1C(=O)Nc1cnc(-c2cc(OC)ccc2Cl)c(N)n1` [Example 38, N-[6-amino-5-(2-chloro-5-methoxyphenyl)pyrazin-2-yl]-5-propylisoxazole-4-carboxamide], the IC50 in assay [1] (setting [2]) is > 30.4 µM; against Human Nav1.8 (setting [2]) it was > 30.2 µM.

As for `COc1ccc(Cl)c(-c2ncc(NC(=O)c3cnoc3)nc2N)c1` [Example 33, N-[6-amino-5-(2-chloro-5-methoxyphenyl)pyrazin-2-yl]isoxazole-4-carboxamide], in assay [1] (setting [2]), the IC50 is > 30.2 µM. On Human Nav1.8 (setting [2]), the IC50 was > 22.7 µM and the “Selectivity Ratio” value was “->1.33”.

Take `COc1cc(Cl)cc(-c2ncc(NC(=O)c3ccnn3C)nc2N)c1Cl` [Example 6, N-[6-amino-5-(2,5-dichloro-3-methoxyphenyl)pyrazin-2-yl]-1-methyl-1H-pyrazole-5-carboxamide]: the IC50 in assay [1] (setting [2]) is > 20 µM; on Human Nav1.8 (setting [2]), 4.71 µM. The “Selectivity Ratio” value at Human Nav1.8 (setting [2]) was >4.25.

For the compound `Cc1nocc1C(=O)Nc1cnc(-c2cccc3ccccc23)c(N)n1` [Example 19, N-[6-amino-5-(1-naphthyl)pyrazin-2-yl]-3-methylisoxazole-4-carboxamide], in assay [1] (manual dissolution procedure), the IC50 is > 30 µM. In addition, at Human Nav1.8 (manual dissolution procedure), the midpoint of inhibition, the IC50, lay at 4.72 µM and the “Selectivity Ratio” value is on record as >6.36.

Take `COCCn1nccc1C(=O)Nc1cnc(-c2cccc(Cl)c2Cl)c(N)n1` [Example 58, N-[6-amino-5-(2,3-dichlorophenyl)pyrazin-2-yl]-1-(2-methoxyethyl)-1H-pyrazole-5-carboxamide]: in assay [1] (setting [2]), the half-inhibitory concentration (IC50) is > 30.2 µM. For the same compound, on Human Nav1.8 (setting [2]), the IC50 is 9.42 µM and the “Selectivity Ratio” value is recorded as >3.21.

As to `Cn1nccc1C(=O)Nc1cnc(-c2ccccc2Cl)c(N)n1` [Example 57, N-[6-amino-5-(2-chlorophenyl)pyrazin-2-yl]-1-methyl-1H-pyrazole-5-carboxamide], the figures for the IC50 (in assay [1] (setting [2]); against Human Nav1.8 (setting [2])) were > 30.2 µM and > 28.4 µM, respectively.

As for `Cn1nccc1C(=O)Nc1cnc(-c2cccc(Cl)c2Cl)c(N)n1` [Example 5, N-[6-amino-5-(2,3-dichlorophenyl)pyrazin-2-yl]-1-methyl-1H-pyrazole-5-carboxamide], the IC50 in assay [1] (setting [2]) was > 26.3 µM; against Human Nav1.8 (setting [2]), 6.14 µM. At Human Nav1.8 (setting [2]), the “Selectivity Ratio” value is given as “->4.28”.

For `CCc1noc(C)c1C(=O)Nc1cnc(-c2cc(OC)ccc2Cl)c(N)n1` [Example 31, N-[6-amino-5-(2-chloro-5-methoxyphenyl)pyrazin-2-yl]-3-ethyl-5-methylisoxazole-4-carboxamide], the IC50 in assay [1] (setting [2]) is > 28.1 µM. Also, on Human Nav1.8 (setting [2]), the IC50 stood at 5.38 µM and the “Selectivity Ratio” value is on record as >5.22.

Regarding `Cc1nocc1C(=O)Nc1cnc(-c2cc(Cl)cc(Cl)c2Cl)c(N)n1` [Example 18, N-[6-amino-5-(2,3,5-trichlorophenyl)pyrazin-2-yl]-3-methylisoxazole-4-carboxamide], the values for the IC50 (in assay [1] (manual dissolution procedure); at Human Nav1.8 (manual dissolution procedure)) were > 30 µM and 0.417 µM, respectively. For the same compound, at Human Nav1.8 (manual dissolution procedure), the “Selectivity Ratio” value is recorded as >72.0.

As for `COc1ccc(Cl)c(-c2ncc(NC(=O)c3conc3C)nc2N)c1` [Example 28, N-[6-amino-5-(2-chloro-5-methoxyphenyl)pyrazin-2-yl]-3-methylisoxazole-4-carboxamide], the figures for the IC50 (in assay [1] (setting [2]); on Human Nav1.8 (setting [2])) were 25.6 µM and 2.61 µM, respectively. On Human Nav1.8 (setting [2]), the “Selectivity Ratio” value is 9.81.

`Cc1nocc1C(=O)Nc1cnc(-c2cccc(Cl)c2Cl)c(N)n1` [Example 17, N-[6-amino-5-(2,3-dichlorophenyl)pyrazin-2-yl]-3-methylisoxazole-4-carboxamide]: the IC50 worked out at 12.5 µM in assay [1] (setting [2]) and 0.425 µM against Human Nav1.8 (setting [2]). At Human Nav1.8 (setting [2]), the “Selectivity Ratio” value stood at 29.4.

For `COc1ccc(Cl)c(-c2ncc(NC(=O)c3nonc3C)nc2N)c1` [Example 29, N-[6-amino-5-(2-chloro-5-methoxyphenyl)pyrazin-2-yl]-4-methyl-1,2,5-oxadiazole-3-carboxamide], the results for the IC50 (in assay [1] (setting [2]); at Human Nav1.8 (setting [2])) were > 29.4 µM and 7.97 µM, respectively. Further, the “Selectivity Ratio” value at Human Nav1.8 (setting [2]) was >3.69.

For the compound `COc1ccc(Cl)c(-c2ncc(NC(=O)c3ccnn3C)nc2N)c1` [Example 2, N-[6-Amino-5-(2-chloro-5-methoxyphenyl)pyrazin-2-yl]-1-methyl-1H-pyrazole-5-carboxamide], in assay [1] (setting [2]), the IC50 was found to be 38.3 µM. On Human Nav1.8 (setting [2]), the concentration for half-maximal inhibition (IC50) was determined as 3.24 µM and the “Selectivity Ratio” value came out at 11.8.

With `COc1cc(Cl)cc(-c2ncc(NC(=O)c3conc3C)nc2N)c1Cl` [Example 49, N-[6-Amino-5-(2,5-dichloro-3-methoxyphenyl)pyrazin-2-y]-3-methylisoxazole-4-carboxamide], in assay [1] (setting [2]), the IC50 is > 13.6 µM. On Human Nav1.8 (setting [2]), half-maximal inhibition (IC50) was put at 0.629 µM and the “Selectivity Ratio” value is >21.6.

Take `Cc1oncc1C(=O)Nc1cnc(-c2cc(Cl)cc(Cl)c2Cl)c(N)n1` [Example 14, N-[6-amino-5-(2,3,5-trichlorophenyl)pyrazin-2-yl]-5-methylisoxazole-4-carboxamide]: the IC50 in assay [1] (setting [2]) worked out at 14.7 µM; in assay [1] (manual dissolution procedure) it was 3.49 µM; on Human Nav1.8 (setting [2]), 1.36 µM; at Human Nav1.8 (manual dissolution procedure), 0.276 µM. The “Selectivity Ratio” value on Human Nav1.8 (setting [2]) was 10.8; at Human Nav1.8 (manual dissolution procedure), 12.7.

With `Cc1nonc1C(=O)Nc1cnc(-c2cccc(Cl)c2Cl)c(N)n1` [Example 59, N-[6-amino-5-(2,3-dichlorophenyl)pyrazin-2-yl]-4-methyl-1,2,5-oxadiazole-3-carboxamide], the IC50 in assay [1] (setting [2]) is > 25.9 µM. Besides, on Human Nav1.8 (setting [2]), the midpoint of inhibition, the IC50, lay at 7.23 µM and the “Selectivity Ratio” value is recorded as >3.58.

For the compound `Cn1nccc1C(=O)Nc1cnc(-c2cc(F)ccc2Cl)c(N)n1` [Example 4, N-[6-amino-5-(2-chloro-5-fluorophenyl)pyrazin-2-yl]-1-methyl-1H-pyrazole-5-carboxamide], the IC50 in assay [1] (setting [2]) is > 30.2 µM. For the same compound, at Human Nav1.8 (setting [2]), the IC50 was found to be 8.73 µM and the “Selectivity Ratio” value is >3.46.

Consider `COc1ccc(Cl)c(-c2ncc(NC(=O)c3c(C)noc3C)nc2N)c1` [Example 36, N-[6-amino-5-(2-chloro-5-methoxyphenyl)pyrazin-2-yl]-3,5-dimethylisoxazole-4-carboxamide], for which the IC50 in assay [1] (setting [2]) is > 30.2 µM. For the same compound, at Human Nav1.8 (setting [2]), the IC50 turned out to be 13.9 µM and the “Selectivity Ratio” value was >2.18.

Regarding `Nc1nc(NC(=O)c2ccon2)cnc1-c1cc(Cl)cc2c1OCCO2` [Example 43, N-[6-amino-5-(7-chloro-2,3-dihydro-1,4-benzodioxin-5-yl)pyrazin-2-yl]isoxazole-3-carboxamide], in assay [1] (setting [2]), the IC50 is > 30.1 µM. Besides, at Human Nav1.8 (setting [2]), the half-maximal inhibitory concentration (IC50) was > 21.1 µM and the “Selectivity Ratio” value is “->1.43”.

For `Cn1nccc1C(=O)Nc1cnc(-c2cc(Cl)ccc2Cl)c(N)n1` [Example 7, N-[6-amino-5-(2,5-dichlorophenyl)pyrazin-2-yl]-1-methyl-1H-pyrazole-5-carboxamide], the IC50 in assay [1] (setting [2]) was determined as 20.5 µM; in assay [1] (manual dissolution procedure), 15.1 µM; at Human Nav1.8 (setting [2]), 3.8 µM; at Human Nav1.8 (manual dissolution procedure) it was 3.98 µM. Further, the results for the “Selectivity Ratio” value on Human Nav1.8 (setting [2]) and on Human Nav1.8 (manual dissolution procedure) were 5.40 and 3.79, respectively.

On to `COc1ccc(Cl)c(-c2ncc(NC(=O)c3ccon3)nc2N)c1` [Example 37, N-[6-amino-5-(2-chloro-5-methoxyphenyl)pyrazin-2-yl]isoxazole-3-carboxamide], for which the IC50 in assay [1] (setting [2]) is > 30.2 µM; on Human Nav1.8 (setting [2]), > 29.4 µM.

With `Cc1oncc1C(=O)Nc1cnc(-c2cc(Cl)cc3c2OCCO3)c(N)n1` [Example 39, N-[6-amino-5-(7-chloro-2,3-dihydro-1,4-benzodioxin-5-yl)pyrazin-2-yl]-5-methylisoxazole-4-carboxamide], the IC50 in assay [1] (setting [2]) was > 17.7 µM. Also, on Human Nav1.8 (setting [2]), half-maximal inhibition (IC50) was put at 5.45 µM and the “Selectivity Ratio” value is >3.25.

On to `Nc1nc(NC(=O)c2cnoc2)cnc1-c1cccc(Cl)c1Cl` [Example 60, N-[6-amino-5-(2,3-dichlorophenyl)pyrazin-2-yl]isoxazole-4-carboxamide], for which the IC50 in assay [1] (setting [2]) was > 30.2 µM. Moreover, on Human Nav1.8 (setting [2]), the midpoint of inhibition, the IC50, lay at 7.19 µM and the “Selectivity Ratio” value is listed as >4.20.

For `COc1ccc(Cl)c(-c2ncc(NC(=O)c3cnoc3C(C)C)nc2N)c1` [Example 30, N-[6-amino-5-(2-chloro-5-methoxyphenyl)pyrazin-2-yl]-5-isopropylisoxazole-4-carboxamide], in assay [1] (setting [2]), the IC50 is > 29.6 µM. For the same compound, on Human Nav1.8 (setting [2]), the IC50 was determined as 3.63 µM and the “Selectivity Ratio” value is recorded as >8.15.

Regarding `Cc1nonc1C(=O)Nc1cnc(-c2cc(Cl)cc3c2OCCO3)c(N)n1` [Example 41, N-[6-amino-5-(7-chloro-2,3-dihydro-14-benzodioxin-5-yl)pyrazin-2-yl]-4-methyl-1,2,5-oxadiazole-3-carboxamide], the figures for the IC50 (in assay [1] (setting [2]); on Human Nav1.8 (setting [2])) were > 28.2 µM and 12.7 µM, respectively. Moreover, on Human Nav1.8 (setting [2]), the “Selectivity Ratio” value is listed as >2.22.

On to `COCCn1nccc1C(=O)Nc1cnc(-c2cc(OC)ccc2Cl)c(N)n1` [Example 34, N-[6-amino-5-(2-chloro-5-methoxyphenyl)pyrazin-2-yl]-1-(2-methoxyethyl)-1H-pyrazole-5-carboxamide], for which the 50% inhibitory concentration (IC50) was > 30.2 µM in assay [1] (setting [2]) and 15.6 µM on Human Nav1.8 (setting [2]).

For `Cc1nocc1C(=O)Nc1cnc(-c2cc(Cl)ccc2Cl)c(N)n1` [Example 20, N-[6-amino-5-(2,5-dichlorophenyl)pyrazin-2-yl]-3-methylisoxazole-4-carboxamide], the IC50 was 9.2 µM in assay [1] (setting [2]), 12.5 µM in assay [1] (manual dissolution procedure), 0.511 µM on Human Nav1.8 (setting [2]) and 0.188 µM on Human Nav1.8 (manual dissolution procedure). Also, the figures for the “Selectivity Ratio” value on Human Nav1.8 (setting [2]) and at Human Nav1.8 (manual dissolution procedure) were 18.00 and 66.5, respectively.

Usually IC50 stands for the concentration needed to halve the response being measured.
